Experimental findings from ChEMBL document CHEMBL1201862, “PubChem BioAssay data set” (2004) are described below.

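Method: 48-hour compound exposure of cells in 96-well plates, five concentrations, linear interpolation of endpoints. GI50 = concentration required for 50% inhibition of growth.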 The source made the active and inactive calls. Cut-off read from the data, not from the text of the source: active = GI50 up to about 1.1 µM and inactive = higher. Where only a bound is given, the exact number is not on record here.

Among the test systems are MDA-MB-435; IGROV-1; DU-145; NCI-H522; SW-620; U-251; T47D; 786-0; EKVX; BT-549; HOP-92; HCT-15; HOP-62; KM12; HL-60; K562; NCI-H226; UACC-257; NCI-H23; RXF 393.
What all share (experiment): NCI anticancer screen, dose series, 48 h

As to `Nc1ccccc1C(=O)CCc1c[nH]c2ccccc12`, the GI50 with MDA-MB-435 was > 100 µM (inactive); in the experiment with IGROV-1, 35.7 µM (inactive); with DU-145, > 100 µM (inactive); in the experiment on NCI-H522 it was > 100 µM (inactive); in the experiment on SW-620 it was > 100 µM (inactive); with U-251, 27.4 µM (inactive). The GI50 with T47D was 5.53 µM (inactive); with 786-0, 46.2 µM (inactive); with EKVX, 48.3 µM (inactive); in the experiment with BT-549, 19.3 µM (inactive); in the experiment with HOP-92, 13.3 µM (inactive); with HCT-15 it was 93.3 µM. Also, the GI50 is 32.2 µM (inactive) in the experiment with HOP-62; > 100 µM (inactive) in the experiment on KM12; > 100 µM (inactive) with HL-60; > 100 µM (inactive) in the experiment on K562; > 100 µM (inactive) with NCI-H226; > 100 µM (inactive) with UACC-257.

`Cc1ccc(Nc2nc(=O)[nH]c(=O)[nH]2)cc1N`: the GI50 in the experiment with MDA-MB-435 was 26.5 µM (inactive); in the experiment with IGROV-1, > 100 µM (inactive); in the experiment on NCI-H23, > 100 µM (inactive); in the experiment with DU-145, > 100 µM (inactive); in the experiment with NCI-H522, > 100 µM (inactive); in the experiment with SW-620, 30.8 µM (inactive). Also, the GI50 was 27.5 µM (inactive) with U-251; > 100 µM (inactive) in the experiment with T47D; > 100 µM (inactive) in the experiment on 786-0; > 100 µM (inactive) in the experiment with EKVX; > 100 µM (inactive) in the experiment with BT-549; > 100 µM (inactive) with HOP-92. Further, the GI50 with HCT-15 is greater than 100 µM; with HOP-62, > 100 µM (inactive); in the experiment on KM12, > 100 µM (inactive); in the experiment on HL-60, > 100 µM (inactive); with NCI-H226, > 100 µM (inactive); in the experiment with UACC-257, > 100 µM (inactive).

On to `CCCC(C)NC(=O)c1ccc(N(C)Cc2cnc3nc(N)nc(N)c3n2)cc1` (configuration not stated), for which the GI50 in the experiment on MDA-MB-435 was 11.7 µM (inactive); with IGROV-1, 17.7 µM (inactive); in the experiment with NCI-H23, 29.4 µM (inactive); in the experiment on DU-145, 27.2 µM (inactive); in the experiment on SW-620, 28.4 µM (inactive); with RXF 393, 26.2 µM (inactive). Besides, the GI50 with U-251 was 14.8 µM (inactive); with T47D, 24 µM (inactive); in the experiment with 786-0 it was 10.5 µM (inactive); with EKVX it was 56.9 µM (inactive); in the experiment on BT-549 it was 15.5 µM (inactive); in the experiment with HCT-15 it was 26.4 µM. The GI50 with HOP-62 is 29.5 µM (inactive); with KM12, 31.3 µM (inactive); in the experiment with HL-60, 16.4 µM (inactive); with K562 it was 8 µM (inactive); in the experiment on NCI-H226, 19.1 µM (inactive); with UACC-257, 15.9 µM (inactive).

Take `Cc1ccc2c(c1)nc(N)n[n+]2[O-]`: the GI50 with MDA-MB-435, in the experiment with IGROV-1, in the experiment with NCI-H23, in the experiment on DU-145, with NCI-H522 and in the experiment with SW-620 was > 100 µM (inactive) in each case. Also, the GI50 was > 100 µM (inactive) with U-251; > 100 µM (inactive) with T47D; > 100 µM (inactive) with 786-0; > 100 µM (inactive) with EKVX; > 100 µM (inactive) with BT-549; greater than 100 µM with HCT-15. In addition, the GI50 in the experiment on HOP-62, in the experiment with KM12, in the experiment with HL-60, in the experiment with K562, in the experiment with NCI-H226 and in the experiment with UACC-257 was > 100 µM (inactive) throughout.

On to `CN(C)CCNc1nc(-c2ccc3ccccc3c2)nc2[nH]cnc12`, for which the GI50 was 11 µM (inactive) in the experiment with MDA-MB-435; 2.31 µM (inactive) with IGROV-1; 11.7 µM (inactive) in the experiment on NCI-H23; 10.6 µM (inactive) with DU-145; 1.12 µM (active) in the experiment on NCI-H522; 11.4 µM (inactive) with SW-620. The GI50 with RXF 393 was 11.6 µM (inactive); with U-251, 13.1 µM (inactive); in the experiment on T47D it was 12.5 µM (inactive); with 786-0, 10 µM (inactive); with EKVX, 4.55 µM (inactive); with BT-549, 11.2 µM (inactive). For the same compound, the GI50 was 5.82 µM in the experiment with HCT-15; 10.9 µM (inactive) in the experiment on HOP-62; 4.8 µM (inactive) in the experiment on KM12; 3.93 µM (inactive) with HL-60; 21.1 µM (inactive) in the experiment on K562; 2.59 µM (inactive) in the experiment with NCI-H226. For the same compound, in the experiment on UACC-257, the GI50 is 6.9 µM (inactive).

Regarding `COC(O)C(=O)c1c2c(cc3c1CCC3)CCC2` (configuration not stated), the GI50 with MDA-MB-435, with IGROV-1, with NCI-H23, with DU-145, in the experiment on NCI-H522 and in the experiment on SW-620 was > 100 µM (inactive) in each case. Moreover, the GI50 in the experiment with U-251 is > 100 µM (inactive); in the experiment with T47D, > 100 µM (inactive); in the experiment on 786-0, > 100 µM (inactive); with EKVX, > 100 µM (inactive); in the experiment with BT-549, > 100 µM (inactive); with HCT-15 it was greater than 100 µM. The GI50 was > 100 µM (inactive) with HOP-62; 70.1 µM (inactive) in the experiment on KM12; 22.6 µM (inactive) in the experiment with HL-60; 80.9 µM (inactive) in the experiment on K562; > 100 µM (inactive) in the experiment on NCI-H226; > 100 µM (inactive) with UACC-257.

For the compound `CC(N/N=C(\S)N1CCCCCC1)c1cccnn1` (configuration not stated), the GI50 in the experiment on MDA-MB-435 was 0.61 µM (active); in the experiment with IGROV-1 it was 0.361 µM (active); in the experiment with NCI-H23 it was 0.254 µM (active); in the experiment with DU-145 it was 0.579 µM (active); in the experiment with NCI-H522, 0.2 µM (active); with SW-620, 0.147 µM (active). For the same compound, the GI50 was 0.228 µM (active) in the experiment with RXF 393; 0.326 µM (active) with U-251; 0.163 µM (active) with T47D; 0.394 µM (active) with 786-0; 0.27 µM (active) in the experiment on EKVX; 0.392 µM (active) in the experiment on BT-549. Also, the GI50 in the experiment on HCT-15 was 0.386 µM; in the experiment on HOP-62, 0.374 µM (active); in the experiment with KM12 it was 0.525 µM (active); with HL-60 it was 0.114 µM (active); in the experiment with K562, 0.2 µM (active); in the experiment with NCI-H226, 0.618 µM (active). Also, in the experiment on UACC-257, the GI50 was 0.2 µM (active).

For `C=CCn1c(S)nnc1C12CC3CC(CC(C3)C1)C2`, the GI50 in the experiment with MDA-MB-435 was 48.9 µM (inactive); with IGROV-1 it was > 100 µM (inactive); in the experiment on NCI-H23, 94.4 µM (inactive); in the experiment with DU-145, 69.3 µM (inactive); in the experiment with NCI-H522, 25 µM (inactive); in the experiment on SW-620 it was > 100 µM (inactive). Moreover, the GI50 in the experiment on RXF 393 is > 100 µM (inactive); in the experiment with U-251, 86.9 µM (inactive); with T47D, 32.8 µM (inactive); in the experiment on 786-0, > 100 µM (inactive); with BT-549 it was 50.6 µM (inactive); with HCT-15, 44.3 µM. In addition, the GI50 was > 100 µM (inactive) in the experiment with HOP-62; 75.5 µM (inactive) with KM12; 17.2 µM (inactive) with HL-60; 25.4 µM (inactive) in the experiment with K562; > 100 µM (inactive) in the experiment with NCI-H226; 52.2 µM (inactive) in the experiment on UACC-257.

On to `COCC1OC(Sc2ccccc2)C(O)C(OC)C1OC` (configuration not stated), for which the GI50 in the experiment on MDA-MB-435, in the experiment with IGROV-1, in the experiment on NCI-H23, in the experiment on DU-145, in the experiment with NCI-H522 and with SW-620 was > 100 µM (inactive) throughout. Moreover, the GI50 in the experiment with RXF 393, with U-251, with T47D, in the experiment on 786-0, in the experiment with EKVX and in the experiment on BT-549 was > 100 µM (inactive) each time. Also, the GI50 in the experiment with HCT-15 is greater than 100 µM; in the experiment with HOP-62, > 100 µM (inactive); in the experiment on KM12 it was > 100 µM (inactive); in the experiment with HL-60 it was > 100 µM (inactive); in the experiment on K562 it was > 100 µM (inactive); in the experiment on NCI-H226, > 100 µM (inactive). In addition, the GI50 with UACC-257 was > 100 µM (inactive).

As to `NCCCCCNOCCCN`, the GI50 in the experiment with MDA-MB-435, in the experiment with IGROV-1, in the experiment with NCI-H23, in the experiment with DU-145, with NCI-H522 and with SW-620 was > 100 µM (inactive) throughout. Moreover, the GI50 with U-251, in the experiment with T47D, in the experiment on 786-0, in the experiment on EKVX, with BT-549 and with HOP-92 was > 100 µM (inactive) in each case. Further, the GI50 with HCT-15 is greater than 100 µM; in the experiment on HOP-62, > 100 µM (inactive); with KM12, > 100 µM (inactive); in the experiment on HL-60, > 100 µM (inactive); in the experiment on K562, > 100 µM (inactive); with NCI-H226, > 100 µM (inactive). The GI50 in the experiment with UACC-257 is > 100 µM (inactive).

Turning to `CCC1(c2ccc(OC)c(OC)c2)CCN(S(=O)(=O)c2ccc(C)cc2)C1` (configuration not stated), the GI50 was 82.6 µM (inactive) in the experiment with MDA-MB-435; > 100 µM (inactive) with IGROV-1; > 100 µM (inactive) in the experiment with NCI-H23; > 100 µM (inactive) with DU-145; 68.5 µM (inactive) with NCI-H522; > 100 µM (inactive) with SW-620. Also, the GI50 in the experiment on RXF 393, in the experiment on U-251, in the experiment on T47D, in the experiment with 786-0, with EKVX and with BT-549 was > 100 µM (inactive) throughout. Moreover, the GI50 with HCT-15 is greater than 100 µM; in the experiment with HOP-62, > 100 µM (inactive); with KM12, 33.3 µM (inactive); in the experiment on K562, > 10 µM (inactive); with NCI-H226 it was > 100 µM (inactive); in the experiment with UACC-257, > 100 µM (inactive).
